The record followed here is PMC9180926, “Discovery of Novel 3-Hydroxyquinazoline-2,4(1H,3H)-Dione Derivatives: A Series of Metal Ion Chelators with Potent Anti-HCV Activities” (International Journal of Molecular Sciences, 2022).

Molecules are shown by their SMILES.

Series [1] can be described thus: Cytotoxicity assay (CCK-8) on replicon cells. The conditions noted are these: human, HCV 1b replicon cells (Huh-7.5.1); 50% cytotoxic concentration; CCK-8, HCV 1b replicon cells, 72 h. It counts as cell-based. As for the experimental part: (§1) The HCV replicons were validated as convenient and effective models for testing the anti-HCV activity. Since HCV subtype 1b is one of the major subtypes worldwide, especially in China, the replicon model from the Huh-7.5.1 cell line integrating HCV 1b genome encoding the nonstructural proteins was chosen to evaluate the anti-HCV activities of 3-hydroxyquinazoline-2,4(1H,3H)-diones. The inhibitory rates of the compounds on HCV replicon cells were determined at concentrations of 25 μM and 10 μM, respectively. The broad-spectrum antiviral drug ribavirin (RBV) and the NS5B nucleoside inhibitor 2′-C-methyladenosine (2CMA) were selected as positive controls. The cytotoxicity of these compounds on replicon cells was determined using the cell counting kit-8 (CCK-8) assay.
The HCV 1b replicon cells were incubated and treated with test compounds or blank DMSO in a 48-well plate using the same materials and methods as described in the experimental procedure of anti-HCV assay. The final concentration of DMSO in each well was 0.1%. After 72 h of drug treatment, the culture medium in the well plate was removed, and cells in each well were washed with 300 μL of PBS. A total of 300 μL of pre-prepared fresh culture medium containing 30 μL CCK-8 reagent (Donjindo, Kumamoto, Japan) was added to each well, and the plate was incubated at 5% CO2/37 °C for 2 h. The OD (optical density) value of each well at 450 nm was measured using a multi-function microplate reader (SpectraMax M5, Molecular Devices, San Jose, CA, USA). The death ratio of each well was calculated using the following equation, in which ODcompound or ODblank represents the measured OD value of the compound group or the blank control (DMSO), respectively:death ratio = (1−ODcompound/ODblank) × 100%(2)
The cell death data under at least six different concentration gradients were imported into GraphPad Prism 7.0.0 software (GraphPad Software Inc., San Diego, CA, USA), and the CC50 (50% cytotoxic concentration) values were calculated using the nonlinear fitting method.
Background: Replicon systems follow genome replication, usually without infectious particles.

Series [2] has as its system HCV 1b replicon cells (Huh-7.5.1). The experiment in a line: Anti-HCV assay, HCV 1b replicon cells with luciferase reporter. It counts as cell-based, hepatitis C virus (HCV) subtype 1b. Conditions: Hepatitis C virus, HCV 1b replicon cells; for EC50: Huh-7.5.1, 50% effective concentration, mean ± SD; for inhibition at 10 µM / inhibition at 25 µM: Huh-7.5.1, 72 h, 72 h; for inhibition at 10 µM: inhibitory rate at 10 μM, read-out: HCV Inhibition 10 μM; for inhibition at 25 µM: inhibitory rate at 25 μM, read-out: HCV Inhibition 25 μM. As for the experimental part: as §1
HCV 1b replicon cells (Huh-7.5.1) containing luciferase reporter gene were kindly provided by Prof. Zhenghong Yuan (Key Laboratory of Medical Molecular Virology, Fudan University, Shanghai, China). The replicon cells were plated at 1.5 × 10^4 cells per well in a 48-well plate (Corning Inc., New York, NY, USA) at 5% CO2/37 °C. The culture medium was Dulbecco’s Modified Eagle Medium (DMEM, pH 7.3, Shanghai XP Biomed Ltd., Shanghai, China) containing 10% fetal bovine serum (Shanghai XP Biomed Ltd., Shanghai, China), 10^5 U/L penicillin, 0.1 g/L streptomycin, and 0.5 μg/mL blasticidin. After 12 h, the culture medium in each well was replaced with 300 μL of pre-prepared fresh culture medium containing test compound (dissolved in DMSO with specific concentration) or blank DMSO. The final concentration of DMSO in the culture medium in the plate was 0.1%. Each group was tested at least twice in parallel. Ribavirin and 2CMA were used as the positive controls. After incubating the drug-added plate at 5% CO2/37 °C for 72 h, the medium was removed, and each well was washed with 300 μL of phosphate buffer solution (PBS, Shanghai XP Biomed Ltd., Shanghai, China). The cells in each well were then lysed with 50 μL of 1× lysis buffer (E2820, Promega, Madison, WI, USA). Subsequently, 50 μL of 1× luciferase assay substrate (E2820, Promega, Madison, WI, USA) was mixed with 20 μL of the harvested cell lysates.
The inhibitory rates under at least six different concentration gradients were imported into GraphPad Prism 7.0 software to calculate the anti-HCV EC50 values of the compounds using the nonlinear fitting method.

For series [3] the test system is unchanged. The description is as above. It is filed as cell-based, hepatitis C virus (HCV) subtype 1b. The conditions noted are these: Hepatitis C virus, Huh-7.5.1, 72 h, inhibitory rate at 5 μM.

Consider `O=c1[nH]c2ccc(-c3ccccc3)cc2c(=O)n1O` [21a, 3-Hydroxy-6-phenylquinazoline-2,4(1H,3H)-dione], for which the 50% cytotoxic concentration (CC50) (usually the concentration that lowers cell viability or growth by half) at 72 h in series [1] was determined as 5.5 ± 1 µM. Moreover, in series [2], the concentration giving a half-maximal response (EC50) – broadly, the concentration that produces a half-maximal response – worked out at 4.3 ± 0.7 µM and the inhibition (in general, the drop in the measured response relative to a control, in per cent) at 10 µM is 65.4%. In series [3], the inhibition at 5 µM was found to be 35.6%.
On to `O=c1[nH]c2ccc(-c3ccc(F)cc3)cc2c(=O)n1O` [21b, 6-(4-Fluorophenyl)-3-hydroxyquinazoline-2,4(1H,3H)-dione], for which it took 8 ± 2.2 µM to reach half-maximal cytotoxicity in series [1] (CC50 at 72 h). In series [2], the EC50 is 6.1 ± 0.1 µM and the inhibition at 10 µM was determined as 79.7%. Besides, in series [3], the inhibition at 5 µM amounted to 47.7%.
Take `COc1ccc(-c2ccc3[nH]c(=O)n(O)c(=O)c3c2)cc1` [21c, 3-Hydroxy-6-(4-methoxyphenyl)quinazoline-2,4(1H,3H)-dione]: in series [1], the cytotoxic concentration (CC50) at 72 h was 14.8 ± 5.3 µM. Also, in series [2], the EC50 stood at 7.2 ± 0.8 µM and the inhibition at 10 µM was determined as 48.2%. Further, the inhibition at 5 µM in series [3] amounted to 11.1%.
`O=c1[nH]c2ccc(-c3cccc([N+](=O)[O-])c3)cc2c(=O)n1O` [21d, 3-Hydroxy-6-(3-nitrophenyl)quinazoline-2,4(1H,3H)-dione] yielded a cytotoxic concentration (CC50) at 72 h in series [1] of 6.6 ± 1.5 µM. In series [2], the 50% effective concentration (EC50) is 4.8 ± 0.8 µM and the inhibition at 10 µM was found to be 78.5%. The inhibition at 5 µM in series [3] worked out at 71.1%.
The like results for `O=c1[nH]c2cc(-c3ccc(F)cc3)ccc2c(=O)n1O` [21f, 7-(4-Fluorophenyl)-3-hydroxyquinazoline-2,4(1H,3H)-dione] were, in that order, 4.1 ± 0.6 µM, 3.1 ± 0.1 µM, 78.8% and 73.4%.
With `Nc1ccccc1-c1ccc2c(=O)n(O)c(=O)[nH]c2c1` [21g, 7-(2-Aminophenyl)-3-hydroxyquinazoline-2,4(1H,3H)-dione], in series [1], it took 16.2 ± 0.7 µM to reach half-maximal cytotoxicity (CC50 at 72 h). Moreover, in series [2], the response was half-maximal at 8.8 ± 1.8 µM (EC50) and the inhibition at 10 µM came to 64.7%. Further, in series [3], the inhibition at 5 µM turned out to be 24.7%.
`COc1ccc(-c2ccc3c(=O)n(O)c(=O)[nH]c3c2)cc1` [21i, 3-Hydroxy-7-(4-methoxyphenyl)quinazoline-2,4(1H,3H)-dione]: the CC50 at 72 h in series [1] stood at 5.6 ± 0.5 µM. Moreover, in series [2], the concentration for a half-maximal effect (EC50) worked out at 3.4 ± 0.1 µM and the inhibition at 10 µM turned out to be 64.7%.
`Nc1cccc(-c2ccc3c(=O)n(O)c(=O)[nH]c3c2)c1` [21j, 7-(3-Aminophenyl)-3-hydroxyquinazoline-2,4(1H,3H)-dione] displayed a CC50 at 72 h in series [1] of 13 ± 0.8 µM. In series [2], the 50% effective concentration (EC50) turned out to be 7.3 ± 1.3 µM and the inhibition at 10 µM came out at 51%. Further, in series [3], the inhibition at 5 µM came to 16.1%.
The like results for `O=c1[nH]c2cc(-c3ccc(F)c(Cl)c3)ccc2c(=O)n1O` [21l, 7-(3-Chloro-4-fluorophenyl)-3-hydroxyquinazoline-2,4(1H,3H)-dione] were, in that order, 40.7 ± 3.9 µM, 7.9 ± 1 µM, 49.7% and 25.9%.
In series [1], `O=c1[nH]c2cc(-c3ccc(F)cc3F)ccc2c(=O)n1O` [21n, 7-(2,4-Difluorophenyl)-3-hydroxyquinazoline-2,4(1H,3H)-dione] showed a half-maximal cytotoxic concentration (CC50) at 72 h of 11.2 ± 1.4 µM. In series [2], the EC50 worked out at 3.9 ± 0.3 µM and the inhibition at 10 µM was determined as 69.7%.
As to `COc1ccc(-c2ccc3c(=O)n(O)c(=O)[nH]c3c2)cc1F` [21o, 7-(3-Fluoro-4-methoxyphenyl)-3-hydroxyquinazoline-2,4(1H,3H)-dione], the CC50 at 72 h in series [1] came out at 4.3 ± 0.4 µM. Further, in series [2], a half-maximal response (EC50) required 3.9 ± 2.2 µM and the inhibition at 10 µM amounted to 71.3%.
Take `Cc1ccc(F)cc1-c1ccc2c(=O)n(O)c(=O)[nH]c2c1` [21p, 7-(5-Fluoro-2-methylphenyl)-3-hydroxyquinazoline-2,4(1H,3H)-dione]: in series [1], the CC50 at 72 h amounted to 13.4 ± 5.2 µM. Also, in series [2], the EC50 is 9.9 ± 0.6 µM and the inhibition at 10 µM was found to be 44.9%.
For the compound `O=c1[nH]c2cc(-c3cccnc3)ccc2c(=O)n1O` [21r, 3-Hydroxy-7-(pyridin-3-yl)quinazoline-2,4(1H,3H)-dione], in series [2], the inhibition at 10 µM amounted to 26.9% and the inhibition at 25 µM was found to be 65.4%. Besides, the inhibition at 5 µM in series [3] is -5.5%.
Turning to `O=c1[nH]c2cc(-c3ccco3)ccc2c(=O)n1O` [21s, 7-(Furan-2-yl)-3-hydroxyquinazoline-2,4(1H,3H)-dione], the half-maximal cytotoxic concentration (CC50) at 72 h in series [1] came to 16.3 ± 0.6 µM. Also, in series [2], the EC50 is 4 ± 0.5 µM and the inhibition at 10 µM is 72.6%. Further, in series [3], the inhibition at 5 µM worked out at 56.2%.
For `O=c1[nH]c2c(-c3ccccc3)cccc2c(=O)n1O` [21u, 3-Hydroxy-8-phenylquinazoline-2,4(1H,3H)-dione], in series [2], the inhibition at 10 µM is 27.5% and the inhibition at 25 µM was determined as 40.9%. Further, the inhibition at 5 µM in series [3] stood at 1.8%.
`Cn1c(=O)n(O)c(=O)c2cc(-c3cccc([N+](=O)[O-])c3)ccc21` [23a, 3-Hydroxy-1-methyl-6-(3-nitrophenyl)quinazoline-2,4(1H,3H)-dione]: the CC50 at 72 h in series [1] came out at 5.2 ± 0.1 µM. In series [2], the response was half-maximal at 2.3 ± 0.1 µM (EC50) and the inhibition at 10 µM is 66.5%.
As for `Cn1c(=O)n(O)c(=O)c2ccc(-c3ccccc3)cc21` [23b, 3-Hydroxy-1-methyl-7-phenylquinazoline-2,4(1H,3H)-dione], half-maximal cytotoxicity in series [1] (CC50 at 72 h) was put at 6.7 ± 0.3 µM. In addition, in series [2], the EC50 was determined as 3.9 ± 1 µM and the inhibition at 10 µM turned out to be 79.5%. The inhibition at 5 µM in series [3] worked out at 39.2%.
In series [1], `Cn1c(=O)n(O)c(=O)c2ccc(-c3ccc(F)cc3)cc21` [23c, 7-(4-Fluorophenyl)-3-hydroxy-1-methylquinazoline-2,4(1H,3H)-dione] showed a CC50 at 72 h of 8.1 ± 0.2 µM. Moreover, in series [2], a half-maximal effect (EC50) was put at 4.6 ± 0.5 µM and the inhibition at 10 µM was 79.1%. The inhibition at 5 µM in series [3] came out at 40.6%.
On to `COc1ccc(-c2ccc3c(=O)n(O)c(=O)n(C)c3c2)cc1` [23d, 3-Hydroxy-7-(4-methoxyphenyl)-1-methylquinazoline-2,4(1H,3H)-dione], for which the 50% cytotoxic concentration (CC50) at 72 h in series [1] stood at 9.3 ± 0.4 µM. In series [2], the EC50 worked out at 3.3 ± 0.2 µM and the inhibition at 10 µM turned out to be 73.3%.
In series [1], `CCn1c(=O)n(O)c(=O)c2ccc(-c3ccccc3)cc21` [23e, 1-Ethyl-3-hydroxy-7-phenylquinazoline-2,4(1H,3H)-dione] displayed a CC50 at 72 h of 39.5 ± 2.3 µM. For the same compound, in series [2], the response was half-maximal at 26.8 ± 2.5 µM (EC50), the inhibition at 10 µM turned out to be 24.6% and the inhibition at 25 µM turned out to be 77.5%.
In turn, `O=C(Cn1c(=O)n(O)c(=O)c2ccc(-c3ccco3)cc21)Nc1ccccc1Cl` [23j, N-(2-Chlorophenyl)-2-(7-(furan-2-yl)-3-hydroxy-2,4-dioxo-3,4-dihydroquinazolin-1(2H)-yl)acetamide] showed a CC50 at 72 h in series [1] of 12.2 ± 3.3 µM. In addition, in series [2], the half-maximal effective concentration (EC50) turned out to be 5.2 ± 1.9 µM, the inhibition at 10 µM is 47.8% and the inhibition at 25 µM is 80%.
In series [1], `O=c1[nH]c2cc(Br)ccc2c(=O)n1O` [compound 19, 7-Bromo-3-hydroxyquinazoline-2,4(1H,3H)-dione] gave a 50% cytotoxic concentration (CC50) at 72 h of 37.6 ± 2.6 µM. For the same compound, in series [2], the EC50 worked out at 19 ± 1.8 µM, the inhibition at 10 µM worked out at 41.1% and the inhibition at 25 µM came out at 72%. Also, the inhibition at 5 µM in series [3] worked out at 23.5%.
